The values that follow come from patent US6677328B1, “Method for the prevention of colonic adenomas” (priority 1995, dated 2004).

Holding throughout (assay type): in vivo, Male Fischer 344 rats
Assay [1] has as its system azoxymethane-induced colon neoplasms in Fischer 344 rats. Kind of assay: Azoxymethane-induced colon tumors in rats on supplemented AIN-76 diet (Example 1). The following applies: for Tumor bearing rats, total, number / Tumor bearing rats, benign (adenoma), number / Tumor bearing rats, benign (adenoma), {%} / Tumor bearing rats, malignant (cancers), number / Tumor bearing rats, malignant (cancers), {%} / Tumor bearing rats, total, {%}: azoxymethane 15 mg/kg s.c., sacrifice after 28 weeks. As for the experimental part: (§1) The control group diet is not supplemented at all. After 2 weeks, half of the rats in each group receive azoxymethane (15 mg/kg) or azoxymethane vehicle subcutaneously once a week for two weeks. […] After 28 weeks, the rats are sacrificed, the colons harvested and examined for neoplasms. None of the rats injected with azoxymethane vehicle develop tumors. Since it is believed that malignancies develop from adenomas, the total tumor bearing rat values are particularly enlightening as this represents the number of growths that are still in the adenoma stage and the number of growths that have continued to progress to cancers. Ursodiol reduced the number of growths from control by 50%, with a 100% reduction in those that progressed to cancers and a 33% reduction in the number of tumors that still remained as adenomas.

The test system is the same in assay [2]. Kind of assay: Azoxymethane rat model, incidence of microadenomas, adenomas and cancers (Example 2). Also noted: Tumor bearing rats, benign (microadenoma) / Tumor bearing rats, benign (adenoma) / Tumor bearing rats, malignant (cancers) / Tumor bearing rats, total: unit not given here. To be noted: for Tumor bearing rats, total / Tumor bearing rats, benign (adenoma) / Tumor bearing rats, benign (microadenoma) / Tumor bearing rats, malignant (cancers): azoxymethane model as Example 1. As for the experimental part: as §1
The procedure of Example 1 was followed except that the number of rats involved are as stated in the table below and aberrant crypt frequency was examined upon sacrifice of the rats. The incidence of microadenomas, adenomas, and cancers in the tested populations was recorded and appears in the table below.

Assay [3] shares this test system. In words: Azoxymethane rat model, 7 diets, two study centers (Example 3). As for the experimental part: The control group diet is not supplemented at all. After 2 weeks, half of the rats in each group receive azoxymethane (15 mg/kg) or azoxymethane vehicle subcutaneously once a week for two weeks. […] After 28 weeks, the rats are sacrificed, the colons harvested and examined for neoplasms.

Where [4] appears, read: Study Center 2, standard diet + 0.2%.
Where [5] appears, read: Study Center 2, standard diet + 0.4%.
[6] abbreviates: Study center 1, standard diet + 0.2%.
The mark [7] stands for this setting: Study center 1, standard diet + 0.4%.
The mark [8] stands for this setting: piroxicam diet, level not given.
Where [9] appears, read: Study Center 2, standard diet + Piroxicam, level not given.
Where [10] appears, read: Study center 1, standard diet + Piroxicam, level not given.

For the compound `C[C@H](CCC(=O)O)[C@H]1CC[C@H]2[C@@H]3[C@H](O)C[C@@H]4C[C@H](O)CC[C@]4(C)[C@H]3C[C@H](O)[C@]12C` [Cholic Acid, Cholic acid], in assay [1] (0.4% in diet, in words), the “Effect on number of adenomas present” value was “increased the number of adenomas which were present” and the “Effect on number of malignancies over control” value is reported as “increased the number of malignancies over control”. For the same compound, the “Tumor bearing rats, total, number” value in assay [1] (control, diet not supplemented) was determined as 34. In assay [1] (diet supplement 0.4%), the “Tumor bearing rats, benign (adenoma), number” value is on record as 20; the “Tumor bearing rats, benign (adenoma), {%}” value was found to be 43%; the “Tumor bearing rats, malignant (cancers), number” value is listed as 14; the “Tumor bearing rats, malignant (cancers), {%}” value is given as 30%. Also, the “Tumor bearing rats, total, {%}” value in assay [1] (diet supplement 0.4%) worked out at 73%. Further, the “Tumor bearing rats, total” value in assay [2] came to 166. Besides, in assay [2] (diet supplement 0.4%), the “Tumor bearing rats, benign (adenoma)” value came out at 71; the “Tumor bearing rats, benign (microadenoma)” value came out at 57; the “Tumor bearing rats, malignant (cancers)” value came out at 38. For the same compound, in assay [3] (setting [4]), the “Tumor bearing rats, benign” value worked out at 6; the “Tumor bearing rats, malignant” value stood at 8; the “Tumor bearing rats, total” value stood at 14. In addition, in assay [3] (setting [5]), the “Tumor bearing rats, benign” value worked out at 8; the “Tumor bearing rats, malignant” value is reported as 9; the “Tumor bearing rats, total” value worked out at 17. Also, in assay [3] (setting [6]), the “Tumor bearing rats, benign” value is given as 12; the “Tumor bearing rats, malignant” value amounted to 4; the “Tumor bearing rats, total” value worked out at 16. In addition, in assay [3] (setting [7]), the “Tumor bearing rats, benign” value was found to be 12; the “Tumor bearing rats, malignant” value was found to be 5; the “Tumor bearing rats, total” value was 17.
As to `CN1C(C(=O)Nc2ccccn2)=C(O)c2ccccc2S1(=O)=O` [Piroxicam], in assay [1] (75 ppm in diet, in words, compared with ursodiol), the “Effect on adenomas and malignancies” value was “reduced both adenomas and malignancies, but neither was reduced as dramatically as seen with ursodiol administration”. In addition, in assay [1] (diet supplement 75 ppm), the “Tumor bearing rats, benign (adenoma), number” value came to 16; the “Tumor bearing rats, benign (adenoma), {%}” value came out at 29%; the “Tumor bearing rats, malignant (cancers), number” value turned out to be 3; the “Tumor bearing rats, malignant (cancers), {%}” value was determined as 5%. In assay [1] (diet supplement 75 ppm), the “Tumor bearing rats, total, number” value was 19 and the “Tumor bearing rats, total, {%}” value was 34%. In addition, in assay [2] (setting [8]), the “Tumor bearing rats, benign (adenoma)” value came to 42; the “Tumor bearing rats, benign (microadenoma)” value was 25; the “Tumor bearing rats, malignant (cancers)” value was 8; the “Tumor bearing rats, total” value stood at 75. In assay [3] (setting [9]), the “Tumor bearing rats, benign” value turned out to be 8; the “Tumor bearing rats, malignant” value is listed as 2; the “Tumor bearing rats, total” value is 10. Further, in assay [3] (setting [10]), the “Tumor bearing rats, benign” value is recorded as 8; the “Tumor bearing rats, malignant” value is on record as 1; the “Tumor bearing rats, total” value turned out to be 9.
For the compound `C[C@H](CCC(=O)O)[C@H]1CC[C@H]2[C@@H]3[C@@H](O)C[C@@H]4C[C@H](O)CC[C@]4(C)[C@H]3CC[C@]12C` [Ursodiol, 3-α-7-β-dihydroxy-5-β-cholan-24-oic acid], in assay [1] (0.4% in diet, total tumor bearing rats vs control), the “Reduction of the number of growths from control” value stood at 50%. In assay [1] (0.4% in diet, vs control), the “Reduction in growths that progressed to cancers” value is given as 100% and the “Reduction in the number of tumors that still remained as adenomas” value is 33%. In assay [1] (diet supplement 0.4%), the “Tumor bearing rats, benign (adenoma), number” value came out at 10; the “Tumor bearing rats, benign (adenoma), {%}” value is 22%; the “Tumor bearing rats, malignant (cancers), number” value is given as 0 {0}; the “Tumor bearing rats, malignant (cancers), {%}” value is 0 {0} %. Besides, in assay [1] (diet supplement 0.4%), the “Tumor bearing rats, total, number” value is listed as 10 and the “Tumor bearing rats, total, {%}” value is 22%. Moreover, the “Effect on incidence of malignancies and on number and size of non-cancerous or pre-cancerous growths” value in assay [2] (0.4% in diet, in words) was “not only reduces the incidence of malignancies, but also reduces both the number and size of the non-cancerous or pre-cancerous growths”. In assay [2] (diet supplement 0.4%), the “Tumor bearing rats, benign (adenoma)” value is recorded as 27; the “Tumor bearing rats, benign (microadenoma)” value worked out at 23; the “Tumor bearing rats, malignant (cancers)” value turned out to be 0; the “Tumor bearing rats, total” value worked out at 50. For the same compound, the “Effect in preventing the development of tumors at lower concentration” value in assay [3] (0.2% in diet compared with 0.4%, in words) is on record as “does not seem to be as strong as lower concentrations of ursodiol, i.e., 0.2%”. In assay [3] (setting [4]), the “Tumor bearing rats, benign” value is given as 6; the “Tumor bearing rats, malignant” value was 4; the “Tumor bearing rats, total” value is listed as 10. For the same compound, in assay [3] (setting [5]), the “Tumor bearing rats, benign” value worked out at 6; the “Tumor bearing rats, malignant” value came out at 0; the “Tumor bearing rats, total” value was determined as 6. In assay [3] (setting [6]), the “Tumor bearing rats, benign” value was 8; the “Tumor bearing rats, malignant” value was 5; the “Tumor bearing rats, total” value is listed as 13. In assay [3] (setting [7]), the “Tumor bearing rats, benign” value was found to be 4; the “Tumor bearing rats, malignant” value worked out at 0; the “Tumor bearing rats, total” value amounted to 4.
